Results on 17 compounds are retold here after patent US20210079015A1, “NOVEL DIHYDROISOXAZOLE COMPOUNDS AND THEIR USE FOR THE TREATMENT OF HEPATITIS B” (Novartis AG, priority 2017, published 2021).

The assay concerns HBV. Description: Anti-HBV assay (inhibition of HBV replication in HepG2.cl42 cells, HBV DNA by qPCR). In kind it is cell-based, HBV ayw strain. The note with it: Hepatitis B virus, 96 h, treated four days, HBV DNA quantified by real time PCR, read-out: HBsAg EC50.

Take `C[C@H]1Cc2noc(N3CCCOC3=O)c2CN1C(=O)Nc1ccnc(C(F)F)c1` [Compound 52, (S)—N-(2-(difluoromethyl)pyridin-4-yl)-6-methyl-3-(2-oxo-1,3-oxazinan-3-yl)-6,7-dihydroisoxazolo[4,3-c]pyridine-5(4H)-carboxamide]: the EC50 lay in the range of 100 to 1000 nM.
The same measure for `C[C@H]1Cc2noc(N3CCCS3(=O)=O)c2CN1C(=O)Nc1cc(F)c(F)c(F)c1` [Compound 58, (S)-3-(1,1-dioxidoisothiazolidin-2-yl)-6-methyl-N-(3,4,5-trifluorophenyl)-6,7-dihydroisoxazolo[4,3-c]pyridine-5(4H)-carboxamide]: below 100 nM; for `C[C@H]1c2c(noc2-c2cn(C)nn2)CCN1C(=O)Nc1cc(F)c(F)c(F)c1` [Compound 38]: at least 1000 nM.
The same measure for `O=C(Nc1cc(F)c(F)c(F)c1)N1CCc2onc(-c3ccc(F)cc3F)c2C1` [Compound 7.1, 3-(2,4-difluorophenyl)-N-(3,4,5-trifluorophenyl)-6,7-dihydroisoxazolo[4,5-c]pyridine-5(4H)-carboxamide]: 100 to 1000 nM.
The same measure for `C[C@H]1Cc2noc(N3CCC(C)(C)C3=O)c2CN1C(=O)Nc1cc(F)c(F)c(F)c1` [Compound 57, (S)-3-(3,3-dimethyl-2-oxopyrrolidin-1-yl)-6-methyl-N-(3,4,5-trifluorophenyl)-6,7-dihydroisoxazolo[4,3-c]pyridine-5(4H)-carboxamide]: below 100 nM; for `C[C@H]1Cc2noc(-c3ccc(OC(F)(F)F)cc3)c2CN1C(=O)Nc1cc(F)c(F)c(F)c1` [Compound 16]: 100 to 1000 nM.
For the compound `O=C(Nc1cc(F)c(F)c(F)c1)N1CCc2noc(N3CCOC3=O)c2C1` [Compound 5.2, 3-(2-oxooxazolidin-3-yl)-N-(3,4,5-trifluorophenyl)-6,7-dihydroisoxazolo[4,3-c]pyridine-5(4H)-carboxamide], the EC50 lay within 100 to 1000 nM.
The same measure for `C[C@H]1c2c(noc2-c2ccn(C)n2)CCN1C(=O)Nc1cc(F)c(F)c(F)c1` [Compound 34]: at least 1000 nM; for `C[C@H]1Cc2noc(N3CCOCC3)c2CN1C(=O)Nc1cc(F)c(F)c(F)c1` [Compound 59, (S)-6-methyl-3-morpholino-N-(3,4,5-trifluorophenyl)-6,7-dihydroisoxazolo[4,3-c]pyridine-5(4H)-carboxamide]: at least 1000 nM; for `Cc1nc(-c2onc3c2CN(C(=O)Nc2cc(F)c(F)c(F)c2)[C@@H](C)C3)c(C)o1` [Compound 39]: 100 to 1000 nM.
For `C[C@H]1Cc2noc(-c3cn(C)nn3)c2CN1C(=O)Nc1cc(F)c(F)c(F)c1` [Compound 37] the value was 100 to 1000 nM.
For the compound `O=C(Nc1cc(F)c(F)c(F)c1)N1CCc2noc(C3CCCCC3)c2C1` [Compound 2.1, 3-cyclohexyl-N-(3,4,5-trifluorophenyl)-6,7-dihydroisoxazolo[4,3-c]pyridine-5(4H)-carboxamide], the EC50 is 100 to 1000 nM.
The same measure for `C[C@H]1Cc2noc(-c3ccccc3)c2CN1C(=O)Nc1cc(F)c(F)c(F)c1` [Compound 15]: 100 to 1000 nM; for `Cc1ccc(-c2onc3c2CN(C(=O)Nc2cc(F)c(F)c(F)c2)[C@@H](C)C3)cc1` [Compound 11]: 100 to 1000 nM.
For `Cc1cc(-c2onc3c2CN(C(=O)Nc2cc(F)c(F)c(F)c2)[C@@H](C)C3)no1` [Compound 25, (S)-6-methyl-3-(5-methylisoxazol-3-yl)-N-(3,4,5-trifluorophenyl)-6,7-dihydroisoxazolo[4,3-c]pyridine-5(4H)-carboxamide] the value was 100 to 1000 nM; for `C[C@H]1Cc2noc(N3CCCOC3=O)c2CN1C(=O)Nc1cc(F)c(F)c(F)c1` [Compound 48, (S)-6-methyl-3-(2-oxo-1,3-oxazinan-3-yl)-N-(3,4,5-trifluorophenyl)-6,7-dihydroisoxazolo[4,3-c]pyridine-5(4H)-carboxamide], below 100 nM.
For `O=C(Nc1cc(F)c(F)c(F)c1)N1CCc2noc(-c3ccc(F)cc3F)c2C1` [Compound 1.1, 3-(2,4-difluorophenyl)-N-(3,4,5-trifluorophenyl)-6,7-dihydroisoxazolo[4,3-c]pyridine-5(4H)-carboxamide] the value was 100 to 1000 nM.

What is called EC50 is the concentration needed to bring the measured effect to its halfway point.
